Assays:
[1] = molecular target: recombinant soluble human furin (Homo sapiens, UniProt P09958); test: Enzyme kinetics with furin; assay type: biochemical
furin = conditions: read-out: Ki furin; cited from earlier work
[2] = system: fowl plague virus hemagglutinin cleavage in MDCK cells; assay type: cell-based, influenza virus A/FPV/Rostock/34 (H7N1); conditions: FPV-infected MDCK cells; data not shown
[3] = system: fowl plague virus (FPV, Rostock strain); conditions: 25 μM inhibitor, up to 72 h
[4] = Stability of stock solution in water; assay type: physicochemical; conditions: room temperature, two weeks

Chain of recombinant soluble human furin (P09958 108-715 limits assumed): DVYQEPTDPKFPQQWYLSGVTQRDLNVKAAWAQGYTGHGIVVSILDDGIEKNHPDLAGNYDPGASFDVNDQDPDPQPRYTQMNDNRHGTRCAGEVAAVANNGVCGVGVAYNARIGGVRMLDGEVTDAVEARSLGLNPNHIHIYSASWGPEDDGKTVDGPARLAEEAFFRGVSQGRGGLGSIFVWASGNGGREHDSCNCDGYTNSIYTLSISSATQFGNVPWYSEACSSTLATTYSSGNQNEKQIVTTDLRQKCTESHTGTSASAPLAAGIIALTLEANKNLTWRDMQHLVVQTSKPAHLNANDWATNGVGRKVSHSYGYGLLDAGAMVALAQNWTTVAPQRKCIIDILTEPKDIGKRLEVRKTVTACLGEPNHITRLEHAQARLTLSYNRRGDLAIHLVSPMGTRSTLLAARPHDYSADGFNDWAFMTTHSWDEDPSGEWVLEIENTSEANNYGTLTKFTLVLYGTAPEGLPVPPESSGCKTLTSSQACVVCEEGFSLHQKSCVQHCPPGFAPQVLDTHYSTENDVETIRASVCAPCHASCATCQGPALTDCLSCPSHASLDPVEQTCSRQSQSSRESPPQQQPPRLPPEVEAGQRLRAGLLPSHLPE

Row | Compound | Ki [1] | activity in the cellular HA cleavage assay compared with inhibitor 15 [2] | further results
1 | N=C(N)c1ccccc1 [benzamidine, reference compound] | 750 µM |  | 
2 | N=C(N)c1ccc(CN)cc1 [compound 1, 4-amidinobenzylamine] | 1200 µM |  | 
3 | nona-D-arginine |  |  | Ki (furin): 0.0013 µM
4 | CCCCCCCCCC(=O)N[C@@H](CCCNC(=N)N)C(=O)N[C@H](C(=O)N[C@@H](CCCNC(=N)N)C(=O)NCc1ccc(C(=N)N)cc1)C(C)C [compound 16] |  | Very similar results | 
5 | CC(=O)N[C@@H](CCCNC(=N)N)C(=O)N[C@H](C(=O)N[C@@H](CCCNC(=N)N)C(=O)NCc1ccc(C(=N)N)cc1)C(C)C [compound 17] |  | reduced activity | 
6 | CC(C)[C@H](NC(=O)[C@H](CCCNC(=N)N)NC(=O)Cc1ccccc1)C(=O)N[C@@H](CCCNC(=N)N)C(=O)NCc1ccc(C(=N)N)cc1 [compound 15, Phac-Arg-Val-Arg-4-(amidomethyl)benzamidine] |  |  | viability of the cells in the presence of inhibitor ([3]; MDCK cells): not noticeably influenced; delay of virus release versus untreated infected cultures ([3]; MOI 10^-5, MDCK cells): about 24 h; change in HPLC elution profile on storage [4]: could not detect any change

Source: article PMC2834293 (Journal of medicinal chemistry, 2010)
